The values that follow come from ChEMBL document CHEMBL2440050 (ACS Med Chem Lett, 2013).

Assay [1] is described as follows: Growth inhibition of human SW403 cells after 72 hrs by MTS assay. The assay is classed as functional, cell-based. As to conditions: SW-403, 72 h. In general terms: Formazan colour is commonly taken as a measure of viable cells.
Assay [2] concerns HCC1143. The assay can be described thus: Growth inhibition of human HCC1143 cells after 72 hrs by MTS assay. The assay is classed as functional, cell-based. As to conditions: HCC1143, 72 h.
Assay [3] concerns T47D. The assay can be described thus: Growth inhibition of human T47D cells after 72 hrs by MTS assay. The assay is classed as functional, cell-based.
The test system of assay [4] is HCC70. The assay can be described thus: Growth inhibition of human HCC70 cells after 72 hrs by MTS assay. The assay is classed as functional, cell-based. Conditions: HCC70, 72 h.
Assay [5] relates to AU565. The assay can be described thus: Growth inhibition of human AU565 cells after 72 hrs by MTS assay. The assay is classed as functional, cell-based. As to conditions: AU565, 72 h.
The subject of assay [6] is PA-1. The assay can be described thus: Growth inhibition of human PA1 cells after 72 hrs by MTS assay. The assay is classed as functional, cell-based. As to conditions: PA-1, 72 h.
The test system of assay [7] is NCI-H520. The assay can be described thus: Growth inhibition of human NCI-H520 cells after 72 hrs by MTS assay. The assay is classed as functional, cell-based. As to conditions: NCI-H520, 72 h.
Assay [8] can be described thus: Growth inhibition of human LS 174T cells after 72 hrs by MTS assay. The assay is classed as functional, cell-based. Conditions: LS174T.
A short description of assay [9]: Growth inhibition of human LNCaP-FGC cells after 72 hrs by MTS assay. The assay is classed as functional, cell-based. Conditions: LNCaP-Clone-FGC.
Assay [10] is described as follows: Growth inhibition of human KPL4 cells after 72 hrs by MTS assay. The assay is classed as functional, cell-based. As to conditions: KPL4, 72 h.
For assay [11], the system named is HCT-116/VM46. The assay can be described thus: Growth inhibition of vinblastine-resistant human HCT116/VM46 cells overexpressing P-gp after 72 hrs by MTS assay. The assay is classed as functional, cell-based. Conditions: HCT-116/VM46, 72 h.
In assay [12] the target is Tubulin (Sus scrofa) (UniProt P02554+P02550). The assay can be described thus: Displacement of [3H]-VBL from porcine tubulin after 60 mins relative to control. The assay is classed as protein assay. On the technique in general: In a radioligand displacement assay an active substance lowers the binding of a labelled ligand.
Assay [13] has as its system MCF7. The assay can be described thus: Growth inhibition of human MCF7 cells after 72 hrs by MTS assay. The assay is classed as functional, cell-based. As to conditions: MCF7, 72 h.
Assay [14] concerns ZR-75-1. The assay can be described thus: Growth inhibition of human ZR-75-1 cells after 72 hrs by MTS assay. The assay is classed as functional, cell-based. Conditions: ZR-75-1, 72 h.
The test system of assay [15] is MDA-MB-468. The assay can be described thus: Growth inhibition of human MDA-MB-468 cells after 72 hrs by MTS assay. The assay is classed as functional, cell-based. As to conditions: MDA-MB-468, 72 h.
For assay [16], the system named is L1210. The assay can be described thus: Growth inhibition of mouse L1210 cells after 72 hrs by phosphatase assay. The assay is classed as functional, cell-based. As to conditions: L1210, 72 h.
Assay [17] relates to HCT-116/VM46. The assay can be described thus: Growth inhibition of vinblastine-resistant human HCT116/VM46 cells overexpressing P-gp after 72 hrs by phosphatase assay. The assay is classed as functional, cell-based. Conditions: HCT-116/VM46, 72 h.
In assay [18] the test system is HCT-116. The assay can be described thus: Growth inhibition of vinblastine-sensitive human HCT116 cells after 72 hrs by phosphatase assay. The assay is classed as functional, cell-based. Conditions: HCT-116, 72 h.
The nature of assay [19]: Ratio of vinblastine IC50 to compound IC50 for human LNCaP-FGC cells by MTS assay. The assay is classed as functional.
The subject of assay [20] is MDA-MB-468. The assay can be described thus: Ratio of vinblastine IC50 to compound IC50 for human MDA-MB-468 cells by MTS assay. The assay is classed as functional.
In assay [21] the test system is HCT-116/VM46. The assay can be described thus: Ratio of vinblastine IC50 to compound IC50 for vinblastine-resistant human HCT116/VM46 cells overexpressing P-gp by phosphatase assay. The assay is classed as functional.
Assay [22] relates to HCT-116. The assay can be described thus: Growth inhibition of vinblastine-sensitive human HCT116 cells after 72 hrs by MTS assay. The assay is classed as functional, cell-based. As to conditions: HCT-116, 72 h.
Assay [23] concerns HCT-116. The assay can be described thus: Ratio of vinblastine IC50 to compound IC50 for vinblastine-sensitive human HCT116 cells by phosphatase assay. The assay is classed as functional.
Assay [24] deals with PA-1. The assay can be described thus: Ratio of vinblastine IC50 to compound IC50 for human PA1 cells by MTS assay. The assay is classed as functional.
The subject of assay [25] is HCT-116. The assay can be described thus: Ratio of vinblastine IC50 to compound IC50 for vinblastine-sensitive human HCT116 cells by MTS assay. The assay is classed as functional.
Assay [26] has as its system HCT-116. The assay can be described thus: Ratio of IC50 for vinblastine-resistant human HCT116/VM46 cells overexpressing P-gp to IC50 for vinblastine-sensitive human HCT116 cells by phosphatase assay. The assay is classed as functional.
Assay [27] concerns NCI-H520. The assay can be described thus: Ratio of vinblastine IC50 to compound IC50 for human NCI-H520 cells by MTS assay. The assay is classed as functional.
Assay [28] relates to HCC1143. The assay can be described thus: Ratio of vinblastine IC50 to compound IC50 for human HCC1143 cells by MTS assay. The assay is classed as functional.
The test system of assay [29] is HCT-116/VM46. The assay can be described thus: Ratio of vinblastine IC50 to compound IC50 for vinblastine-resistant human HCT116/VM46 cells overexpressing P-gp by MTS assay. The assay is classed as functional.
The test system of assay [30] is ZR-75-1. The assay can be described thus: Ratio of vinblastine IC50 to compound IC50 for human ZR-75-1 cells by MTS assay. The assay is classed as functional.
The nature of assay [31]: Ratio of vinblastine IC50 to compound IC50 for human KPL4 cells by MTS assay. The assay is classed as functional.
The nature of assay [32]: Ratio of vinblastine IC50 to compound IC50 for human SW403 cells by MTS assay. The assay is classed as functional.
Assay [33] relates to HCC70. The assay can be described thus: Ratio of vinblastine IC50 to compound IC50 for human HCC70 cells by MTS assay. The assay is classed as functional.
Assay [34] concerns L1210. The assay can be described thus: Ratio of vinblastine IC50 to compound IC50 for mouse L1210 cells by phosphatase assay. The assay is classed as functional.
Assay [35] concerns LS174T. The assay can be described thus: Ratio of vinblastine IC50 to compound IC50 for human LS 174T cells by MTS assay. The assay is classed as functional.
For assay [36], the system named is T47D. The assay can be described thus: Ratio of vinblastine IC50 to compound IC50 for human T47D cells by MTS assay. The assay is classed as functional.
The subject of assay [37] is AU565. The assay can be described thus: Ratio of vinblastine IC50 to compound IC50 for human AU565 cells by MTS assay. The assay is classed as functional.

Tubulin (Sus scrofa), sequence (P02550 whole entry, looked up): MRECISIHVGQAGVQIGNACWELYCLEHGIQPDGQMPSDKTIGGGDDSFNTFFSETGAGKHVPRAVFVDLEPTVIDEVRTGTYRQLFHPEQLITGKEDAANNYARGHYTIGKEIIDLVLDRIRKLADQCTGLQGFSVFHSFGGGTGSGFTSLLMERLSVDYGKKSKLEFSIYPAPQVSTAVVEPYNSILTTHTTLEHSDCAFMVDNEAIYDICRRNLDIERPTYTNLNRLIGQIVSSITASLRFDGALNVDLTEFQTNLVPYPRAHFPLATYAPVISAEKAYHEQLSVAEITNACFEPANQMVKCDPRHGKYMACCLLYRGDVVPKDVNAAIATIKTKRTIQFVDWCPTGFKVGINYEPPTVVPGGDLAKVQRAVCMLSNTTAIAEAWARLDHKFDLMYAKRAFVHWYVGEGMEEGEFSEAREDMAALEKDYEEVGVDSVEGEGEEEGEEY
Tubulin (Sus scrofa), sequence (P02554 whole entry, looked up): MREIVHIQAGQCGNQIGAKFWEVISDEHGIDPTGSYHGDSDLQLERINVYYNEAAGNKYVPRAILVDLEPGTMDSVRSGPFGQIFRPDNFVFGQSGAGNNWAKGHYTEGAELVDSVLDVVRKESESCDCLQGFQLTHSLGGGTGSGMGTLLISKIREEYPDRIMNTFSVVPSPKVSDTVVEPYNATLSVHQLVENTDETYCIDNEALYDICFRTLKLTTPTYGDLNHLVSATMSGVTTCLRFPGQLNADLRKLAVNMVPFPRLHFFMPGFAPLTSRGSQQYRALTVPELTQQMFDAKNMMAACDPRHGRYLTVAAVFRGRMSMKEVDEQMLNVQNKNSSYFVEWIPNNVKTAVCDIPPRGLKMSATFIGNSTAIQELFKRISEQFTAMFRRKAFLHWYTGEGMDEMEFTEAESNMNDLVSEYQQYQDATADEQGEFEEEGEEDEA

On to `CC[C@]1(O)C[C@@H]2CN(CCc3c([nH]c4ccccc34)[C@@](C(=O)OC)(c3cc4c(cc3OC)N(C)[C@H]3[C@@](O)(C(=O)OC)[C@H](OC(C)=O)[C@]5(CC)C=CCN6CC[C@]43[C@@H]65)C2)C1` [VINBLASTINE], for which the IC50 came out at 7.9 nM in assay [1]; 3.8 nM in assay [2]; 5 nM in assay [3]; 3.5 nM in [4]; 4 nM in assay [5]; 4.6 nM in [6]. In addition, the IC50 in [7] was 4.5 nM; in assay [8], 19.6 nM; in assay [9], 5.1 nM; in [10], 2.9 nM; in assay [11], over 110 nM; in assay [13], over 110 nM. Moreover, the IC50 amounted to 8 nM in assay [14] and 4.6 nM in assay [15]. This compound yielded an Activity in [12] of 50%.

In assay [16], `CC[C@]1(NC(=O)NC)C[C@H]2CN(CCc3c([nH]c4ccccc34)[C@@](C(=O)OC)(c3cc4c(cc3OC)N(C)[C@H]3[C@@](O)(C(=O)OC)[C@H](OC(C)=O)[C@]5(CC)C=CCN6CC[C@]43[C@@H]65)C2)C1` had an IC50 of 5.9 nM.

`CC[C@]1(NC(=O)N2CCOCC2)C[C@H]2CN(CCc3c([nH]c4ccccc34)[C@@](C(=O)OC)(c3cc4c(cc3OC)N(C)[C@H]3[C@@](O)(C(=O)OC)[C@H](OC(C)=O)[C@]5(CC)C=CCN6CC[C@]43[C@@H]65)C2)C1` showed an IC50 in assay [16] of 5.3 nM.

Turning to `CC[C@]1(NC(=O)N2CCCC2)C[C@H]2CN(CCc3c([nH]c4ccccc34)[C@@](C(=O)OC)(c3cc4c(cc3OC)N(C)[C@H]3[C@@](O)(C(=O)OC)[C@H](OC(C)=O)[C@]5(CC)C=CCN6CC[C@]43[C@@H]65)C2)C1`, the IC50 in assay [16] amounted to 0.7 nM; in [17], 50 nM; in [18], 0.72 nM.

For the compound `CC[C@]1(NC(=O)N2CCc3ccccc3C2)C[C@H]2CN(CCc3c([nH]c4ccccc34)[C@@](C(=O)OC)(c3cc4c(cc3OC)N(C)[C@H]3[C@@](O)(C(=O)OC)[C@H](OC(C)=O)[C@]5(CC)C=CCN6CC[C@]43[C@@H]65)C2)C1`, the IC50 in assay [1] stood at 1.2 nM; in [2], 0.16 nM; in assay [3], 0.55 nM; in assay [16], 0.62 nM; in [4] it was 0.13 nM; in [5], 0.13 nM. The IC50 was determined as 8.7 nM in assay [17]; 0.56 nM in assay [18]; 0.26 nM in [22]; 0.19 nM in assay [6]; 0.14 nM in [7]; 0.3 nM in [8]. Also, the IC50 in [9] came out at 0.02 nM; in assay [10], 0.06 nM; in assay [11] it was 6.6 nM; in assay [13], 2.1 nM; in assay [14] it was 0.52 nM; in assay [15], 0.12 nM. Moreover, the “Ratio IC50” value in assay [19] worked out at 10; in assay [20], 10; in [21], 80; in assay [23], 10; in assay [24] it was 10; in assay [25], 10. Further, the “Ratio IC50” value in [26] is recorded as 13; in [27] it was 10; in assay [28], 10; in assay [29] it was 10; in assay [30], 10; in assay [31], 10. The “Ratio IC50” value in [32], in [33], in assay [34], in assay [35], in assay [36] and in assay [37] was 10 in each case.

For `CC[C@]1(NC(=O)N2CC=CCC2)C[C@H]2CN(CCc3c([nH]c4ccccc34)[C@@](C(=O)OC)(c3cc4c(cc3OC)N(C)[C@H]3[C@@](O)(C(=O)OC)[C@H](OC(C)=O)[C@]5(CC)C=CCN6CC[C@]43[C@@H]65)C2)C1`, the IC50 came to 0.5 nM in assay [1]; 0.13 nM in assay [2]; 0.51 nM in assay [3]; 0.52 nM in [16]; 0.21 nM in assay [4]; 0.15 nM in assay [5]. Besides, the IC50 in [17] is 8.4 nM; in [18], 0.52 nM; in assay [22], 0.22 nM; in assay [6], 0.11 nM; in [7] it was 0.17 nM; in assay [8], 0.46 nM. For the same compound, the IC50 in assay [9] was 0.45 nM; in [10], 0.06 nM; in [11], 6.4 nM; in [13], over 12.5 nM; in assay [14] it was 0.71 nM; in assay [15] it was 0.4 nM. Also, the “Ratio IC50” value in assay [19] turned out to be 10; in assay [20] it was 10; in assay [21], 80; in assay [23], 10; in assay [24], 10; in assay [25], 10. Further, the “Ratio IC50” value in assay [26] is reported as 13; in assay [27] it was 10; in assay [28], 10; in assay [29], 10; in assay [30], 10; in assay [31] it was 10. In addition, the “Ratio IC50” value in assay [32], in assay [33], in assay [34], in assay [35], in assay [36] and in assay [37] was 10 each time.

One may read the IC50 as the point on the concentration scale where inhibition reaches its midpoint. A low value points to greater potency in that assay.
